According to US20110040086A1, “Novel Beta-Lactam Antibiotics, Methods for Their Production, and Their Use” (DRITTE PATENTPORTFOLIO BETEILIGUNGSGESELLSCHAFT MB, priority 2007, published 2011):

Tests used:
[1] = tested on: Bacillus megaterium SBUG 1152; experiment: agar diffusion test (Test System 1, antimicrobial effect); format: cell-based
Description: (§1) Test System 1 (Antimicrobial Effect)
(§2) The test germs Escherichia coli SBUG 1135 and Bacillus megaterium SBUG 1152 are drawn overnight (17 hours at 37° C.) in 5 ml nutrient medium II. The incubation is performed in a shaking incubator (INFORS AG CH 4103, Bottmingen, Switzerland) at a shaking frequency of 180 rpm.
(§3) After 17 h incubation time, Escherichia coli has reached a cell density of ca. 2.4×10^10 cells/ml and Bacillus megaterium a cell density of ca. 2.1×10^8 cells/ml.
(§4) The seeding of bacteria in agar is selected so that, dense, but not confluent individual colonies develop after the incubation.
Bacillus megaterium: 0.1 ml of non-diluted overnight culture (ÜN) in 10 ml nutrient agar corresponds to a cell count of 10^6.
(§5) The inoculated nutrient agar is set in sterile Petri dishes and left standing for a few minutes for drying.
(§6) The test substances are deposited in stepped quantities (10 μg, 50 μg, 100 μg) onto active ingredient carriers (sensi-discs). For this purpose, the test substances are dissolved in methanol or A. dest. according to their solubility. Each inoculated plate is fitted with 3 test sheets.
(§7) After a 20-hour incubation time at 37° C., the zones of inhibition around the individual test sheets could be measured. The diameter of the zone of inhibition is specified in mm.

B. subtilis AWD 166 = experiment: agar diffusion test (antimicrobial effect); format: cell-based, Bacillus subtilis
Description: as §4, §5, §6, §7

[2] = tested on: Escherichia coli SBUG 1135; experiment: agar diffusion test (Test System 1, antimicrobial effect); format: cell-based; design: key: r = resistant (no detectable zone of inhibition)
Description: as §1, §2, §3, §4
Escherichia coli: the ÜN is diluted 1:100 with physiological saline solution, of which 0.1 ml is converted into 10 ml nutrient agar. That corresponds to a cell count of 10^6.
as §5, §6, §7

[3] = tested on: Enterococcus faecalis 769; experiment: agar diffusion test (Test System II, multi-resistant germs); format: cell-based; design: key: r = resistant (no detectable zone of inhibition)
Description: as §6
(§8) Test System II (Effect Against Multi-Resistant Germs)
(§9) For this purpose, bacteria is cultivated on Müller-Hinton-Agar II plates.
(§10) With 1-1.5 ml physiological saline solution, a bacteria suspension of McFarland 0.5 (corresponds to a bacteria density of 150×10^6 germs) is produced. Then, with a sterile glass rod, a small drop of bacteria suspension is placed on the Müller-Hinton-Agar plate and coated in three layers (vertical, horizontal, and transverse). Thereafter, the sensi-discs with the novel semi-synthetic test substances are placed on top. The fitted plates are incubated for 18-20 hours at 37° C. After incubation, the diameters of the zones of inhibition are read as a measure for the antimicrobial activity of the novel semi-synthetic test substances.

[4] = tested on: Staphylococcus aureus 315; experiment: as above; format: cell-based; design: key: r = resistant (no detectable zone of inhibition)
Description: as §6, §8, §9, §10

E. faecalis 945 = experiment: as above; format: cell-based, Enterococcus faecalis; design: key: r = resistant (no detectable zone of inhibition)
Description: as §6, §8, §9, §10

S. aureus 33490 = experiment: as above; format: cell-based, Staphylococcus aureus; design: key: r = resistant (no detectable zone of inhibition)
Description: as §6, §8, §9, §10

S. aureus 34289 = experiment: as above; format: cell-based, Staphylococcus aureus; design: key: r = resistant (no detectable zone of inhibition)
Description: as §6, §8, §9, §10

S. aureus 36881 = experiment: as above; format: cell-based, Staphylococcus aureus; design: key: r = resistant (no detectable zone of inhibition)
Description: as §6, §8, §9, §10

S. aureus 39105 = experiment: as above; format: cell-based, Staphylococcus aureus; design: key: r = resistant (no detectable zone of inhibition)
Description: as §6, §8, §9, §10

S. aureus 520 = experiment: as above; format: cell-based, Staphylococcus aureus; design: key: r = resistant (no detectable zone of inhibition)
Description: as §6, §8, §9, §10

S. aureus 526 = experiment: as above; format: cell-based, Staphylococcus aureus; design: key: r = resistant (no detectable zone of inhibition)
Description: as §6, §8, §9, §10

[5] = tested on: S. aureus North Germany strain; experiment: as above; format: cell-based, Staphylococcus aureus; design: key: r = resistant (no detectable zone of inhibition)
Description: as §6, §8, §9, §10

S. aureus 38418 = experiment: as above; format: cell-based, Staphylococcus aureus
Description: as §6, §8, §9, §10

S. aureus ATCC 6538 = experiment: as above; format: cell-based, Staphylococcus aureus
Description: as §6, §8, §9, §10

S. epidermidis 1068 = experiment: as above; format: cell-based, Staphylococcus epidermidis; design: key: r = resistant (no detectable zone of inhibition)
Description: as §6, §8, §9, §10

S. epidermidis 1071 = experiment: as above; format: cell-based, Staphylococcus epidermidis; design: key: r = resistant (no detectable zone of inhibition)
Description: as §6, §8, §9, §10

S. epidermidis 563 = experiment: as above; format: cell-based, Staphylococcus epidermidis; design: key: r = resistant (no detectable zone of inhibition)
Description: as §6, §8, §9, §10

S. epidermidis 847 = experiment: as above; format: cell-based, Staphylococcus epidermidis; design: key: r = resistant (no detectable zone of inhibition)
Description: as §6, §8, §9, §10

S. epidermidis 125 = experiment: as above; format: cell-based, Staphylococcus epidermidis
Description: as §6, §8, §9, §10

Substance: 7-[2-(2-ethoxycarbonyl-3,6-dioxocyclohexa-1,4-dienylamino)-2-phenyl-acetylamino]-desacetoxycephalosporanic acid [1h]
- Diameter of zone of inhibition ([1]; Quantity n 0.019): 18 mm
- Diameter of zone of inhibition ([1]; Quantity n 0.09): 28 mm
- Diameter of zone of inhibition ([1]; Quantity n 0.19): 32 mm
- Diameter of zone of inhibition (B. subtilis AWD 166; Quantity n 0.019): 22 mm
- Diameter of zone of inhibition (B. subtilis AWD 166; Quantity n 0.09): 30 mm
- Diameter of zone of inhibition (B. subtilis AWD 166; Quantity n 0.19): 32 mm
- Diameter of zone of inhibition ([2]; Quantity n 0.019): r
- Diameter of zone of inhibition ([2]; Quantity n 0.09): 14 mm
- Diameter of zone of inhibition ([2]; Quantity n 0.19): 18 mm
- Diameter of zone of inhibition ([3]; Quantity n 0.019): r
- Diameter of zone of inhibition ([3]; Quantity n 0.09): r
- Diameter of zone of inhibition ([3]; Quantity n 0.19): r
- Diameter of zone of inhibition ([4]; Quantity n 0.019): r
- Diameter of zone of inhibition ([4]; Quantity n 0.09): r
- Diameter of zone of inhibition ([4]; Quantity n 0.19): 10 mm
- Diameter of zone of inhibition (E. faecalis 945; Quantity n 0.019): r
- Diameter of zone of inhibition (E. faecalis 945; Quantity n 0.09): r
- Diameter of zone of inhibition (E. faecalis 945; Quantity n 0.19): r
- Diameter of zone of inhibition (S. aureus 33490; Quantity n [μmol] 0.019): r
- Diameter of zone of inhibition (S. aureus 33490; Quantity n [μmol] 0.09): 16 mm
- Diameter of zone of inhibition (S. aureus 33490; Quantity n [μmol] 0.19): 20 mm
- Diameter of zone of inhibition (S. aureus 34289; Quantity n [mol] 0.019): r
- Diameter of zone of inhibition (S. aureus 34289; Quantity n [mol] 0.09): r
- Diameter of zone of inhibition (S. aureus 34289; Quantity n [mol] 0.19): r
- Diameter of zone of inhibition (S. aureus 36881; Quantity n 0.019): r
- Diameter of zone of inhibition (S. aureus 36881; Quantity n 0.09): r
- Diameter of zone of inhibition (S. aureus 36881; Quantity n 0.19): 12 mm
- Diameter of zone of inhibition (S. aureus 39105; Quantity n 0.019): r
- Diameter of zone of inhibition (S. aureus 39105; Quantity n 0.09): 8 mm
- Diameter of zone of inhibition (S. aureus 39105; Quantity n 0.19): 14 mm
- Diameter of zone of inhibition (S. aureus 520; Quantity n [mol] 0.019): r
- Diameter of zone of inhibition (S. aureus 520; Quantity n [mol] 0.09): r
- Diameter of zone of inhibition (S. aureus 520; Quantity n [mol] 0.19): r
- Diameter of zone of inhibition (S. aureus 526; Quantity n 0.019): r
- Diameter of zone of inhibition (S. aureus 526; Quantity n 0.09): r
- Diameter of zone of inhibition (S. aureus 526; Quantity n 0.19): r
- Diameter of zone of inhibition ([5]; Quantity n 0.019): r
- Diameter of zone of inhibition ([5]; Quantity n 0.09): 8 mm
- Diameter of zone of inhibition ([5]; Quantity n 0.19): 12 mm
- Diameter of zone of inhibition (S. aureus 38418; Quantity n [mol] 0.019): 12 mm
- Diameter of zone of inhibition (S. aureus 38418; Quantity n [mol] 0.09): 22 mm
- Diameter of zone of inhibition (S. aureus 38418; Quantity n [mol] 0.19): 28 mm
- Diameter of zone of inhibition (S. aureus ATCC 6538; Quantity n 0.019): 20 mm
- Diameter of zone of inhibition (S. aureus ATCC 6538; Quantity n 0.09): 28 mm
- Diameter of zone of inhibition (S. aureus ATCC 6538; Quantity n 0.19): 30 mm
- Diameter of zone of inhibition (S. epidermidis 1068; Quantity n 0.019): r
- Diameter of zone of inhibition (S. epidermidis 1068; Quantity n 0.09): 10 mm
- Diameter of zone of inhibition (S. epidermidis 1068; Quantity n 0.19): 16 mm
- Diameter of zone of inhibition (S. epidermidis 1071; Quantity n 0.019): r
- Diameter of zone of inhibition (S. epidermidis 1071; Quantity n 0.09): 14 mm
- Diameter of zone of inhibition (S. epidermidis 1071; Quantity n 0.19): 20 mm
- Diameter of zone of inhibition (S. epidermidis 563; Quantity n 0.019): r
- Diameter of zone of inhibition (S. epidermidis 563; Quantity n 0.09): 14 mm
- Diameter of zone of inhibition (S. epidermidis 563; Quantity n 0.19): 18 mm
- Diameter of zone of inhibition (S. epidermidis 847; Quantity n [mol] 0.019): r
- Diameter of zone of inhibition (S. epidermidis 847; Quantity n [mol] 0.09): 12 mm
- Diameter of zone of inhibition (S. epidermidis 847; Quantity n [mol] 0.19): 18 mm
- Diameter of zone of inhibition (S. epidermidis 125; Quantity n 0.019): 12 mm
- Diameter of zone of inhibition (S. epidermidis 125; Quantity n 0.09): 24 mm
- Diameter of zone of inhibition (S. epidermidis 125; Quantity n 0.19): 28 mm
